Experimental data published in article PMC11325787, “A fluorescence polarization assay for high-throughput screening of inhibitors against HIV-1 Nef-mediated MHC-I downregulation” (The Journal of Biological Chemistry, 2024).
Peptide text beside a SMILES is read from it. * marks the point of attachment. X1 = CN(C)c1ccc2c(-c3ccc(C(=O)*)cc3C(=O)[O-])c3ccc(=[N+](C)C)cc-3oc2c1; 5TAMRA = CN(C)c1ccc2c(c1)Oc1cc(N(C)C)ccc1C21OC(=O)c2cc(C(=O)*)ccc21

Experiments:
MBP-Nef-μ1^CTD [1] = biological target: T1, MBP-Nef-μ1^CTD (UniProt P03406+P35585); assay type: binding, HIV-1 (Nef 59–206, NL4.3); settings: 300 μM, result in words; for effect on FP signal: 30 μM MBP-Nef-μ1^CTD, 50 nM TMR-enhanced-MHC-ICD, room temperature; for effect on FP signal / noise in the assay: final dimethylsulfoxide 3%; for background of the assay: not shown
T1 construct: fusing HIV-1 Nef (59–206, NL4.3) to the C terminal domain of μ1 subunit of AP1; to the C terminal domain of μ1 subunit of AP1 via a flexible linker of 20 amino acids; 6xHis (C); made in house; host or cells: Escherichia coli
T1 sequence (P03406 59-206 limits assumed): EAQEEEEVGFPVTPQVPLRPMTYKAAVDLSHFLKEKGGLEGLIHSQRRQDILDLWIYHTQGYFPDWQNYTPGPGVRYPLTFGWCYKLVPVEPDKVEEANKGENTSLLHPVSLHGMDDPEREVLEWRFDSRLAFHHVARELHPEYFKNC
T1 sequence (P35585 168-421 limits assumed): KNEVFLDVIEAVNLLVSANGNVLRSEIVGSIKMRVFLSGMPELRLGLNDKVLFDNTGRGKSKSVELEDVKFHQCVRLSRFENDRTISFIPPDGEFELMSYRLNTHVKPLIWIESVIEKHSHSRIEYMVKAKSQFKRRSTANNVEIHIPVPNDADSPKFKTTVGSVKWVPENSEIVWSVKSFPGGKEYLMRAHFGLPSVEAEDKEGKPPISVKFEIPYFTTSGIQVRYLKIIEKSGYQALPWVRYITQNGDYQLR

[2] = Stability of the probes on the bench; settings: room temperature
MBP-Nef-μ1^CTD [3] = biological target: T1, MBP-Nef-μ1^CTD; assay: Fluorescence polarization binding assay of TMR-labelled MHC-ICD probes with the Nef-μ1^CTD fusion; set-up: species or system HIV-1 (Nef 59–206, NL4.3); settings: 50 nM probe
Protocol: The assay volume was miniaturized and kept at 15 μl for compatibility with HTS.
Purified MBP-Nef-μ1^CTD was buffer exchanged into the assay buffer (50 mM Tris, 150 mM NaCl, 0.5 mM DTT, 0.01% Triton X-100, pH 8.0). A stock protein solution of 120 μM Nef-μ1^CTD was then prepared and was subsequently used to create different dilutions. Assays were carried out in Corning 384-well black microplates (3820). In each well, 50 nM TMR-labeled MHC-ICD peptide was mixed with MBP-Nef-μ1^CTD at varied concentrations in a total volume of 15 μl. The plate was incubated for 1∼2 h at room temperature with minimal exposure to light. FP was then measured using the EnVision plate reader (PerkinElmer) with excitation at 535 nm and emission at 595 nm. Experiments were done in triplicates. Data was fitted to nonlinear regression and plotted as a function of protein concentration in a logarithmic scale using OriginLab.
The adjusted data was then fitted to nonlinear regression for one-site binding using the following equation: Y = Bmax∗X/(KD + X) (Bmax: maximum specific binding in the same units as Y).

MBP-Nef-μ1^CTD [4] = biological target: T1, MBP-Nef-μ1^CTD; assay: Competition of TMR-enhanced-MHC-ICD by unlabeled enhanced-MHC-ICD peptide (FP); assay type: binding, HIV-1 (Nef 59–206, NL4.3); settings: room temperature, result in words
Excerpt: We next investigated whether our assay is sensitive to competitive inhibition. Here, an unlabeled, modified MHC-ICD peptide was used as the competitor. The sequence of this competitor peptide is different from the authentic sequence of MHC-ICD in the following ways. […] Second, to improve the solubility of the competitor peptide, we introduced three additional mutations in the MHC-ICD sequence: Q322E, G325S, and S326D. According to the previous structure, these mutations should not interfere with Nef-μ1^CTD binding but should increase the peptide’s hydrophilicity.
The Nef-μ1^CTD fusion was constructed by fusing HIV-1 Nef (59–206, NL4.3) to the C terminal domain of μ1 subunit of AP1 via a flexible linker of 20 amino acids. Gene encoding the above Nef-μ1^CTD fusion was cloned into a modified pMAT9 expression vector with a 6xHis tag introduced at the C-terminus of the fusion protein. Escherichia coli cells transformed with the plasmid were grown at 37 °C till A600 reached 0.8. Protein expression was then induced with 0.1 mM IPTG and continued at 16 °C overnight. Cells were then lysed using sonication. The protein of interest was purified sequentially through a Ni-NTA affinity column, a MBP affinity column, a HiTrap Q anion exchange column, and finally a Superdex 200 size exclusion column.
For competition using unlabeled enhanced-MHC-ICD peptide, a stock solution of 1.2 mM unlabeled enhanced-MHC-ICD peptide was first prepared. The stock solution was then serial-diluted (2-fold each) 10 times. […] The plate was incubated at room temperature and read at different time points. FP values were recorded. All experiments were done in triplicates.

[5] = Precipitation/solubility of competitor peptide observed during experiments; assay type: physicochemical; settings: seen during experiments; stock solution 1.2 mM; result in words
TMR-MHC-ICD = assay: fluorescence polarisation

Compound: OC[C@H]1O[C@H](O[C@H]2[C@H](O)[C@@H](O)C(O)O[C@@H]2CO)[C@H](O)[C@@H](O)[C@@H]1O (mixture of isomers) [maltose]
- effect on FP signal (MBP-Nef-μ1^CTD [1]): did not lead to any meaningful decrease of the FP signal
- noise in the assay (MBP-Nef-μ1^CTD [1]): did not cause noise
- background of the assay (MBP-Nef-μ1^CTD [1]): no fluctuation at all

Compound: C[C@H](NC(=O)[C@H](C)NC(=O)[C@H](CCC(N)=O)NC(=O)[C@H](CO)NC(=O)[C@H](Cc1ccc(O)cc1)NC(=O)[C@H](CO)NC(=O)c1ccc(-c2c3ccc(=[N+](C)C)cc-3oc3cc(N(C)C)ccc23)c(C(=O)[O-])c1)C(=O)NCC(=O)N[C@@H](CO)C(=O)N[C@@H](CC(=O)O)C(=O)N[C@@H](CO)C(=O)N[C@@H](C)C(=O)N[C@@H](CCC(N)=O)C(=O)O [TMR-MHC-ICD] (X1-SYSQAAGSDSAQ-OH; N-terminus and C-terminus assumed)
- stability of probe [2]: at least 20 h
- Kd (MBP-Nef-μ1^CTD [3]; FP, MBP-Nef-μ1^CTD varied, 15 μl, 384-well, 50 mM Tris, 150 mM NaCl, 0.5 mM DTT, 0.01% Triton X-100, pH 8.0, 1∼2 h, room temperature, ex 535 nm, em 595 nm, triplicates, TMR-mutant-MHC-ICD signal subtracted, one-site binding fit, read-out: KD (dissociation constant)): 44.1 µM
- signal window (difference between probe and TMR-mutant-MHC-ICD curves) (MBP-Nef-μ1^CTD [3]; low Nef-μ1^CTD concentrations, result in words): very modest

Compound: CC(C)C[C@H](NC(=O)[C@H](CCC(N)=O)NC(=O)[C@H](CO)NC(=O)[C@H](Cc1ccc(O)cc1)NC(=O)[C@H](CO)NC(=O)c1ccc2c(c1)C(=O)OC21c2ccc(N(C)C)cc2Oc2cc(N(C)C)ccc21)C(=O)N[C@@H](C)C(=O)NCC(=O)N[C@@H](CO)C(=O)N[C@@H](CC(=O)O)C(=O)N[C@@H](CO)C(=O)N[C@@H](C)C(=O)N[C@@H](CCC(N)=O)C(=O)O [TMR-enhanced-MHC-ICD] (5TAMRA-SYSQLAGSDSAQ-OH)
- stability of probe [2]: at least 20 h

Compound: O=C(N[C@H](CO)[C@H](O)c1ccc([N+](=O)[O-])cc1)C(Cl)Cl [chloramphenicol]
- effect on FP signal (MBP-Nef-μ1^CTD [1]): did not lead to any meaningful decrease of the FP signal
- noise in the assay (MBP-Nef-μ1^CTD [1]): did not cause noise
- background of the assay (MBP-Nef-μ1^CTD [1]): no fluctuation at all

Compound: CC(C)C[C@H](NC(=O)[C@H](CCC(=O)O)NC(=O)[C@H](CO)NC(=O)[C@H](Cc1ccc(O)cc1)NC(=O)[C@@H](N)CO)C(=O)N[C@@H](C)C(=O)N[C@@H](CO)C(=O)N[C@@H](CC(=O)O)C(=O)N[C@@H](CC(=O)O)C(=O)N[C@@H](CO)C(=O)N[C@@H](C)C(=O)N[C@@H](CCC(N)=O)C(=O)O [unlabeled enhanced MHC-ICD peptide] (H-SYSELASDDSAQ-OH; N-terminus and C-terminus assumed)
- effect on FP signal (displacement of TMR-enhanced-MHC-ICD probe) (MBP-Nef-μ1^CTD [4]; 30 μM MBP-Nef-μ1^CTD, 50 nM TMR-enhanced-MHC-ICD, varied competitor, triplicates): dose-dependent decrease of the FP signal
- competition of the fluorescence-labeled probe after 1-h incubation (MBP-Nef-μ1^CTD [4]; 1-h incubation, three independent samples, one-way ANOVA p < 0.0001): successfully observed
- competition signals after 4 h (MBP-Nef-μ1^CTD [4]; 4 h, three independent samples, longer incubation led to a gradual decrease of the FP signal (not shown)): remained stable
- precipitation [5]: sometimes forms precipitates

Compound: MBP-Nef-μ1^CTD fusion protein (from UniProt P03406;P35585)
- Kd (TMR-MHC-ICD): 44.1 µM

Compound: TMR-SDSQAAGSRSAQ [TMR-mutant-MHC-ICD]
- stability of probe [2]: at least 20 h
- FP signal at Nef-μ1^CTD concentration beyond 50 μM (MBP-Nef-μ1^CTD [3]; Nef-μ1^CTD >50 μM, noise believed to be light scattering of MBP-Nef-μ1^CTD, result in words): increased modestly
